Data on 1 compound can be found in ChEMBL document CHEMBL4130619, “Structure-Based Virtual Screening for the Discovery of Novel Inhibitors of New Delhi Metallo-β-lactamase-1” (ACS Med Chem Lett, 2018).

Test [1] has as its target Beta-lactamase NDM-1 (Escherichia coli) (UniProt E5KIY2). Briefly: Inhibition of NDM1 in Escherichia coli clinical isolates assessed as potentiation of meropenem-induced antibacterial activity by measuring reduction in meropenem MIC incubated at 37 degC for 18 hrs by spectrophotometry based checkerboard microdilution assay. (Broth dilution looks for growth in wells or tubes with falling amounts of substance.)

Test [2] deals with Bacteria. The test is described as follows: Inhibition of bacterial NDM1 expressed in Escherichia coli BL21 (DE3) expressing pET-24a-blaNDM-1 assessed as potentiation of meropenem-induced antibacterial activity by measuring reduction in meropenem MIC incubated at 37 degC for 18 hrs by spectrophotometry based checkerboard microdilution assay.
Test [3] has as its system Bacteria. The test is described as follows: Inhibition of bacterial NDM1 expressed in Escherichia coli BL21 (DE3) expressing pET-24a-blaNDM-1 assessed as potentiation of cefazolin-induced antibacterial activity by measuring combination MIC at >256 ug/ml incubated at 37 degC for 18 hrs by spectrophotometry based checkerboard microdilution assay.
The target of test [4] is Beta-lactamase NDM-1 (Escherichia coli) (UniProt E5KIY2). The test is described as follows: Inhibition of NDM1 in Escherichia coli clinical isolates assessed as potentiation of meropenem -induced antibacterial activity by measuring combination MIC at 32 ug/ml incubated at 37 degC for 18 hrs by spectrophotometry based checkerboard microdilution assay.
The subject of test [5] is Bacteria. The test is described as follows: Inhibition of bacterial NDM1 expressed in Escherichia coli BL21 (DE3) expressing pET-24a-blaNDM-1 assessed as potentiation of meropenem-induced antibacterial activity by measuring fractional inhibitory concentration index at 16 ug/ml incubated at 37 degC for 18 hrs by spectrophotometry based checkerboard microdilution assay.
For test [6], the target named is Beta-lactamase NDM-1 (Escherichia coli) (UniProt E5KIY2). The test is described as follows: Inhibition of NDM1 in Escherichia coli clinical isolates assessed as potentiation of meropenem -induced antibacterial activity by measuring combination MIC at 2 ug/ml incubated at 37 degC for 18 hrs by spectrophotometry based checkerboard microdilution assay.
For test [7] the target is unchanged. Briefly: Inhibition of NDM1 in Escherichia coli clinical isolates assessed as potentiation of meropenem -induced antibacterial activity by measuring fractional inhibitory concentration index at 32 ug/ml incubated at 37 degC for 18 hrs by spectrophotometry based checkerboard microdilution assay.

Some results are limits rather than exact numbers.

As to `C=CCn1c(S)nnc1-c1ccccc1O`, the figures for the fold change (FC) (in test [1]; in the test on Bacteria [2]) were 8 and 16, respectively. Moreover, the results for the MIC (in the test with Bacteria [3]; in test [4]; in test [6]) were 32 µg/mL, 32 µg/mL and 64 µg/mL, respectively. In addition, the fractional inhibitory concentration index (FICI) is less than 0.281 with Bacteria [5] and less than 0.313 in test [7].
